# Measurements taken from patent publication US20070128217A1 (priority 2003, published 2007).
# How the values were obtained:
# [1] = test system: antibodies in sera from SARS patients (sera 1a, 1b, 2, 6, 37, 62, London, SARS-yellow, SARS-green); type: binding, human; set-up: Binding of serum 6 to linear peptides of protein X1 of SARS-CoV Urbani / Binding of serum 37 to linear peptides of protein X1 of SARS-CoV Urbani / Binding of serum 6 to looped/cyclic peptide (PEPSCAN-ELISA) / Binding of serum 37 to looped/cyclic peptide (PEPSCAN-ELISA) / Binding of serum 37 to looped/cyclic peptides of protein X1 of SARS-CoV Urbani / Binding of serum 6 to linear peptides of protein X2 / Binding of serum 37 to linear peptides of protein X2 / Binding of serum 37 to looped/cyclic peptides of protein X2 of SARS-CoV Urbani / Binding of serum 6 to linear peptides of protein M of SARS-CoV Urbani / Binding of serum 37 to linear peptides of protein M of SARS-CoV Urbani / Binding of serum 6 to looped/cyclic peptides of protein M of SARS-CoV Urbani / Binding of serum 37 to looped/cyclic peptides of protein M of SARS-CoV Urbani / Binding of serum 6 to linear peptides of protein X3 of SARS-CoV Urbani / Binding of serum 37 to linear peptides of protein X3 of SARS-CoV Urbani / Binding of serum 37 to looped/cyclic peptides of protein X3 of SARS-CoV Urbani / Binding of serum 6 to linear peptides of protein X4 of SARS-CoV Urbani / Binding of serum 37 to linear peptides of protein X4 of SARS-CoV Urbani / Binding of serum 37 to looped/cyclic peptides of protein X4 of SARS-CoV Urbani / Binding of serum 6 to linear peptides of protein X5 of SARS-CoV Urbani / Binding of serum 37 to linear peptides of protein X5 of SARS-CoV Urbani / Binding of serum 37 to looped/cyclic peptides of protein X5 of SARS-CoV Urbani / Binding of serum 6 to linear peptides of protein N of SARS-CoV Urbani / Binding of serum 37 to linear peptides of protein N of SARS-CoV Urbani / Binding of serum 6 to linear peptide (PEPSCAN-ELISA) / Binding of serum 1a to looped/cyclic peptides of protein N of SARS-CoV Urbani / Binding of serum 1b to looped/cyclic peptides of protein N of SARS-CoV Urbani / Binding of serum 2 to looped/cyclic peptides of protein N of SARS-CoV Urbani / Binding of serum 6 to looped/cyclic peptides of protein N of SARS-CoV Urbani / Binding of serum 37 to looped/cyclic peptides of protein N of SARS-CoV Urbani / Binding of serum 62 to looped/cyclic peptides of protein N of SARS-CoV Urbani / Binding of serum London to looped/cyclic peptides of protein N of SARS-CoV Urbani / Binding of serum SARS-green to looped/cyclic peptides of protein N of SARS-CoV Urbani: unit not given here
# [2] = test system: control sera (pooled serum of ten healthy LUMC hospital workers; commercial negative donor pooled serum from the Dutch bloodbank); type: binding, human; set-up: Binding of Control serum LUMC to linear peptides / Binding of Control serum Blood-bank to linear peptides / Binding of Control serum LUMC to looped peptides / Binding of Control Serum Blood-Bank to Looped peptides / Binding of Control serum LUMC to linear peptides of the protein M of SARS-CoV Urbani / Binding of Control serum Blood-bank to linear peptides of the protein M of SARS-CoV Urbani / Binding of Control serum LUMC to looped peptides of the protein M of SARS-CoV Urbani / Binding of Control Serum Blood-Bank to Looped peptides of the protein M of SARS-CoV Urbani: unit not given here
# [3] = test system: rabbit serum obtained by immunizing a rabbit with the SARS-CoV strain Frankfurt 1; type: binding; set-up: Binding of a rabbit serum to linear peptides / Binding of a rabbit serum to looped peptides / Rabbit serum linear peptides / Rabbit serum looped peptides / Binding of a rabbit serum to linear peptides of protein N of SARS-CoV Urbani (Rabbit serum linear peptides) / Binding of a rabbit serum to looped/cyclic peptides of protein N of SARS-CoV Urbani (Rabbit serum looped peptides): unit not given here
sequence,measurement,setting,value
CLKILVRYNTRGNTY,Binding of serum 1a to linear peptides of protein X5 of SARS-CoV Urbani,[1],0.7
same,Binding of serum 1a to looped/cyclic peptides of protein X5 of SARS-CoV Urbani,[1],0.5
same,Binding of serum 1b to linear peptides of protein X5 of SARS-CoV Urbani,[1],0.7
same,Binding of serum 1b to looped/cyclic peptides of protein X5 of SARS-CoV Urbani,[1],0.2
same,Binding of serum 2 to linear peptides of protein X5 of SARS-CoV Urbani,[1],0.8
same,Binding of serum 2 to looped/cyclic peptides of protein X5 of SARS-CoV Urbani,[1],0.5
same,Binding of serum 6 to linear peptides of protein X5 of SARS-CoV Urbani,[1],0.8
same,Binding of serum 6 to looped/cyclic peptides of protein X5 of SARS-CoV Urbani,[1],0.4
same,Binding of serum 37 to linear peptides of protein X5 of SARS-CoV Urbani,[1],0.7
same,Binding of serum 37 to looped/cyclic peptides of protein X5 of SARS-CoV Urbani,[1],0.5
same,Binding of serum 62 to linear peptides of protein X5 of SARS-CoV Urbani,[1],0.8
same,Binding of serum 62 to looped/cyclic peptides of protein X5 of SARS-CoV Urbani,[1],0.7
same,Binding of serum London to linear peptides of protein X5 of SARS-CoV Urbani,[1],0.7
same,Binding of serum London to looped/cyclic peptides of protein X5 of SARS-CoV Urbani,[1],0.2
same,Binding of serum SARS-green to linear peptides of protein X5 of SARS-CoV Urbani,[1],0.7
same,Binding of serum SARS-green to looped/cyclic peptides of protein X5 of SARS-CoV Urbani,[1],0.4
same,Binding of serum SARS-yellow to linear peptides of protein X5 of SARS-CoV Urbani,[1],0.3
same,Binding of serum SARS-yellow to looped/cyclic peptides of protein X5 of SARS-CoV Urbani,[1],0.8
same,Binding of Control Serum Blood-Bank to Looped peptides,[2],0.4
same,Binding of Control serum Blood-bank to linear peptides,[2],0.8
same,Binding of Control serum LUMC to linear peptides,[2],0.4
same,Binding of Control serum LUMC to looped peptides,[2],0.6
same,Rabbit serum linear peptides,[3],1.1
same,Rabbit serum looped peptides,[3],0.2
GVAFLAVFQSATKII,Binding of serum 1a to linear peptides of protein X1 of SARS-CoV Urbani,[1],0.7
same,Binding of serum 1a to looped/cyclic peptide (PEPSCAN-ELISA),[1],0.6
same,Binding of serum 1b to linear peptides of protein X1 of SARS-CoV Urbani,[1],0.6
same,Binding of serum 1b to looped/cyclic peptide (PEPSCAN-ELISA),[1],0.4
same,Binding of serum 2 to linear peptides of protein X1 of SARS-CoV Urbani,[1],0.8
same,Binding of serum 2 to looped/cyclic peptide (PEPSCAN-ELISA),[1],0.6
same,Binding of serum 6 to linear peptides of protein X1 of SARS-CoV Urbani,[1],0.7
same,Binding of serum 6 to looped/cyclic peptide (PEPSCAN-ELISA),[1],0.5
same,Binding of serum 37 to linear peptides of protein X1 of SARS-CoV Urbani,[1],0.6
same,Binding of serum 37 to looped/cyclic peptide (PEPSCAN-ELISA),[1],0.6
same,Binding of serum 62 to linear peptides of protein X1 of SARS-CoV Urbani,[1],0.6
same,Binding of serum 62 to looped/cyclic peptide (PEPSCAN-ELISA),[1],0.6
same,Binding of serum London to linear peptides of protein X1 of SARS-CoV Urbani,[1],0.2
same,Binding of serum London to looped/cyclic peptide (PEPSCAN-ELISA),[1],0.4
same,Binding of serum SARS-green to linear peptides of protein X1 of SARS-CoV Urbani,[1],0.3
same,Binding of serum SARS-green to looped/cyclic peptide (PEPSCAN-ELISA),[1],0.3
same,Binding of serum SARS-yellow to linear peptides of protein X1 of SARS-CoV Urbani,[1],0.2
same,Binding of serum SARS-yellow to looped/cyclic peptide (PEPSCAN-ELISA),[1],0.3
same,Binding of Control Serum Blood-Bank to Looped peptides,[2],0.7
same,Binding of Control serum Blood-bank to linear peptides,[2],0.5
same,Binding of Control serum LUMC to linear peptides,[2],0.7
same,Binding of Control serum LUMC to looped peptides,[2],0.7
same,Binding of a rabbit serum to linear peptides,[3],0.9
same,Binding of a rabbit serum to looped peptides,[3],0.6
